We go through two molecules from patent US4011182A, “Cyclic undecapeptide analogs of somatostatin and intermediates” (American Home Products Corporation, priority 1975, dated 1977).

Like-named read-outs stand apart in the source and are kept apart here. Where a SMILES comes first, the peptide text is derived from it.

One experiment has as its system glucagon. As to the kind of experiment: In vivo assay of simultaneous release of growth hormone, insulin and glucagon (pentobarbital, arginine): glucagon. Also on record: species or system rats. The method, then: (§1) Another test was conducted with the compound of Example 5 to determine its effect upon insulin and glucagon levels. The in vivo assay determining simultaneous release of growth hormone, insulin and glucagon was carried out by injecting three groups of male rats weighing about 200 to 250 g. (9 animals per group) with pentobarbital intraperitoneally at a dose of 50 mg/kg per rat followed 15 minutes […], a subcutaneous injection of SRIF at a dose of 0.2 mg/kg to another group of rats and a subcutaneous injection of saline solution to the third group of rats. Ten minutes after such injection the rats receive 150 mg. arginine in 0.5 ml. saline directly in the heart. Five minutes later the rats are decapitated, the blood collected and various radioimmunoassays are run.

Another experiment concerns insulin. Kind of experiment: In vivo assay of simultaneous release of growth hormone, insulin and glucagon (pentobarbital, arginine): insulin. The arrangement: species or system rats. The protocol: as §1, with “pentobarbital” for “pentobarbital intraperitoneally at a dose of 50 mg/kg per rat followed 15 minutes”
In experiment [1] the test system is growth hormone. As to the kind of experiment: Growth hormone level by radioimmunoassay in nembutal-treated rats after subcutaneous injection. Format: in vivo. The method, then: The growth hormone activities of the compounds of Example 5 was determined by injecting rats weighing about 200-250 g. first with nembutal intraperitoneally at a dose of 50 mg/kg then after 5 minutes injecting the rats subcutaneously with a solution of the compound of Example 5 in saline at a dose of 2 mg/kg per rat. Blood samples are taken 15 minutes after injection with the compound of Example 5 and the growth hormone level determined by radioimmunoassay. […] The foregoing experiment was repeated but the dose of the compound of Example 5 was raised to 2.38 mg/kg and the blood was sampled 2 hours after injection.

The subject of experiment [2] is growth hormone. The protocol: Another test was conducted with the compound of Example 5 to determine its effect upon insulin and glucagon levels. The in vivo assay determining simultaneous release of growth hormone, insulin and glucagon was carried out by injecting three groups of male rats weighing about 200 to 250 g. (9 animals per group) with pentobarbital intraperitoneally at a dose of 50 mg/kg per rat followed 15 minutes later by a subcutaneous injection of the compound of Example 5 at a dose of 2.7 mg/kg to one group of rats, a subcutaneous injection of SRIF at a dose of 0.2 mg/kg to another group of rats and a subcutaneous injection of saline solution to the third group of rats. Ten minutes after such injection the rats receive 150 mg. arginine in 0.5 ml. saline directly in the heart. Five minutes later the rats are decapitated, the blood collected and various radioimmunoassays are run.

Setting [3] is: male rats, 2.7 mg/kg subcutaneously, arginine stimulated.

For the molecule `C[C@@H](O)[C@@H]1NC(=O)[C@H](Cc2ccccc2)NC(=O)[C@H]([C@@H](C)O)NC(=O)[C@H](CCCCN)NC(=O)[C@H](Cc2c[nH]c3ccccc23)NC(=O)[C@H](Cc2ccccc2)NC(=O)[C@H](Cc2ccccc2)NC(=O)[C@H](CC(N)=O)NC(=O)[C@H](CCCCN)NC(=O)CC[C@@H](C(=O)O)NC(=O)[C@H](CO)NC1=O` [Example 5, L-lysyl-L-asparaginyl-L-phenylalanyl-L-phenylalanyl-L-tryptophyl-L-lysyl-L- threonyl-L-phenylalanyl-L-threonyl-L-seryl-L-glutamyl (cyclo α-lysyl to γ-glutamyl) peptide] (HELM PEPTIDE1{K.N.F.F.W.K.T.F.T.S.E}$PEPTIDE1,PEPTIDE1,1:R1-11:R3$$$V2.0), the glucagon levels entry in the experiment with glucagon (setting [3]) was “neither glucagon nor insulin levels were lowered”. For the same molecule, the insulin levels entry with insulin (setting [3]) is “neither glucagon nor insulin levels were lowered”. The growth hormone level in the experiment on growth hormone [1] (rats, 2 mg/kg subcutaneously, blood 15 minutes after injection, control 132 ± 20) is 79 ± 14 ng/mL; in the experiment on growth hormone [1] (rats, 2.38 mg/kg subcutaneously, blood 2 hours after injection, control 244 ± 38), 89 ± 23 ng/mL.
“L-Lysyl-L-asparaginyl-L-phenylalanyl-L-phenylalanyl-D-tryptophyl-L-lysyl-L- threonyl-L-phenylalanyl-L-threonyl-L-seryl-glutamyl-(cyclo-α-lysyl to γ-glutamyl)peptide [Example 6]” registered a Glucagon in the experiment with glucagon (experiment 3, dose 3,000 μg/kg, control 129±9) of 107±9 picog/ml. In addition, the Insulin with insulin (experiment 1, dose 3,000 μg/kg, control 194±17) came to 152±13 μU/ml; with insulin (experiment 3, dose 3,000 μg/kg, control 183±19), 93±9 μU/ml. In addition, the growth hormone level is 34 ± 11 nanograms per milliliter in the experiment on growth hormone [1] (rats, 1,500 μg/kg, after four hours, control 182 ± 49) and 18 ± 4 nanograms per milliliter in the experiment on growth hormone [1] (rats, 1,500 μg/kg, two hours after administration, control 180 ± 27). For the same molecule, the GH in the experiment on growth hormone [2] (experiment 1, dose 3,000 μg/kg, control 247±52) was 61 ± 7 ng/mL; with growth hormone [2] (experiment 2, dose 12 μg/kg, control 315±22), 192 ± 29 ng/mL.
